Assay [1] concerns Mycobacterium tuberculosis. In words: Antimycobacterial activity against Mycobacterium tuberculosis H37Rv ATCC 27294 assessed as bacterial growth inhibition incubated for 7 days by resazurin dye based microtiter assay. In kind it is functional. The settings on record: ATCC 27294, 168 h, time 7 day. Background: Resazurin is reduced to fluorescent resorufin, in cell work by metabolically active cells.

Assay [2] concerns Trypanosoma cruzi. The assay is described as follows: Antitrypanosomal activity against bloodstream form of Trypanosoma cruzi Y trypomastigotes infected in albino mouse assessed as reduction in viable parasite in blood incubated for 24 hrs by Neubauer counting chamber method. In kind it is functional, organism-based.
In assay [3] the test system is HL-60. The assay is described as follows: Cytotoxicity against human HL-60 cells assessed as reduction in cell viability incubated for 72 hrs by MTT assay. In kind it is functional, cell-based. The conditions noted are these: HL-60, 72 h. Background: Tetrazolium assays rely on reduction of a dye to a coloured formazan, in cell work by metabolically active cells.
For assay [4], the system named is Jurkat. In words: Cytotoxicity against human Jurkat cells assessed as reduction in cell viability incubated for 72 hrs by MTT assay. The assay is classed as functional, cell-based.
Assay [5] deals with MOLT-4. In words: Cytotoxicity against human MOLT-4 cells assessed as reduction in cell viability incubated for 72 hrs by MTT assay. In kind it is functional, cell-based. The settings on record: MOLT-4, 72 h.
The subject of assay [6] is K562. In words: Cytotoxicity against human K562 cells assessed as reduction in cell viability incubated for 72 hrs by MTT assay. In kind it is functional, cell-based. The settings on record: K562, 72 h.
For assay [7], the system named is Trypanosoma cruzi. In words: Antitrypanosomal activity against bloodstream form of Trypanosoma cruzi trypomastigotes infected in Swiss mouse assessed as reduction in viable parasite in blood incubated for 24 hrs by Neubauer counting chamber method. In kind it is functional, organism-based.
Assay [8] has as its system HepG2. In words: Cytotoxicity against human HepG2 cells assessed as reduction in cell viability incubated for 48 hrs by MTT assay. In kind it is functional, cell-based. The settings on record: HepG2, 48 h.
Assay [9] has as its system PC-3. In words: Cytotoxicity against human PC-3 cells assessed as reduction in cell viability incubated for 72 hrs by MTT assay. In kind it is functional, cell-based. The settings on record: PC-3, 72 h.
Assay [10] concerns SF-295. The assay is described as follows: Cytotoxicity against human SF-295 cells assessed as reduction in cell viability incubated for 72 hrs by MTT assay. In kind it is functional, cell-based. The settings on record: SF-295, 72 h.
In assay [11] the test system is MDA-MB-435. The assay is described as follows: Cytotoxicity against human MDA-MB-435 cells assessed as reduction in cell viability incubated for 72 hrs by MTT assay. The conditions noted are these: MDA-MB-435, 72 h. In kind it is functional, cell-based.
Assay [12] deals with HCT-8. The assay is described as follows: Cytotoxicity against human HCT-8 cells assessed as reduction in cell viability incubated for 72 hrs by MTT assay. In kind it is functional, cell-based. The conditions noted are these: HCT-8, 72 h.
For assay [13], the system named is B16. In words: Cytotoxicity against mouse B16 cells assessed as reduction in cell viability incubated for 72 hrs by MTT assay. The conditions noted are these: B16, 72 h. In kind it is functional, cell-based.
For assay [14], the system named is Staphylococcus aureus. In words: Antibacterial activity against Staphylococcus aureus 2065 MA assessed as diameter of bacterial growth inhibition by Mueller-Hinton broth based assay. In kind it is functional.
The subject of assay [15] is Trypanosoma cruzi. In words: Antitrypanosomal activity against bloodstream form of Trypanosoma cruzi Y trypomastigotes infected in Swiss Webster mouse assessed as reduction in viable parasite in blood incubated for 24 hrs by Neubauer counting chamber based light microscopic analysis. In kind it is functional, organism-based.
Assay [16] has as its system Trypanosoma cruzi. The assay is described as follows: Antitrypanosomal activity against bloodstream form of Trypanosoma cruzi Y trypomastigotes infected in albino mouse assessed as reduction in viable parasite in blood by Neubauer counting chamber method. The assay is classed as functional, organism-based.

Values after ≈ are worked out from the molar mass of the structure shown.

Broadly, the MIC is the lowest concentration that inhibits growth of the organism. With `CC1(C)OC2=C(C(=O)C(=O)c3ccccc32)[C@H](n2cc(-c3ccc(Br)cc3)nn2)[C@H]1Br`, the MIC in assay [1] is less than 6.25 µg/mL. Turning to `CC1(C)OC2=C(C(=O)C(=O)c3ccccc32)[C@H](n2cc(-c3ccc(F)cc3)nn2)[C@H]1Br`, the MIC in assay [1] was less than 6.25 µg/mL.

`COc1ccc(-c2cn([C@H]3C4=C(OC(C)(C)[C@@H]3Br)c3ccccc3C(=O)C4=O)nn2)cc1`: the MIC in assay [1] was less than 6.25 µg/mL. The same measure, in the same setting: the figure for `CC1(C)OC2=C(C(=O)C(=O)c3ccccc32)[C@H](n2cc(-c3ccccc3)nn2)[C@H]1Br` is less than 6.25 µg/mL; for `C=CCC1Cc2c(c3ccccc3c3nc4ccccc4nc23)OC1(C)C` (configuration not stated) it is 0.78 µg/mL (≈ 2.2 µM). As a reminder, the IC50 is the concentration at which inhibition is half-maximal. Take `CC1(C)CCc2c(c3ccccc3c3nc(-c4ccc5c(c4)OCO5)oc23)O1`: the IC50 in [2] turned out to be 270000 nM. For the compound `CC1(C)OC2=C(C(=O)C(=O)c3ccccc32)C1n1cc(-c2ccc(F)cc2)nn1` (configuration not stated), the 50% inhibitory concentration (IC50) in assay [3], in [4], in [5] and in assay [6] was 1330 nM in each case. As for `CC1(C)OC2=C(C(=O)C(=O)c3ccccc32)C1n1cc(-c2ccc([N+](=O)[O-])cc2)nn1` (configuration not stated), the concentration for half-maximal inhibition (IC50) in [3], in [4], in assay [5] and in assay [6] was 740 nM in each case. As for `COc1ccc(-c2cn(C3C4=C(OC3(C)C)c3ccccc3C(=O)C4=O)nn2)cc1` (configuration not stated), the IC50 in assay [3], in assay [4], in assay [5] and in assay [6] was 940 nM throughout. Take `CC1CC2=C(O1)c1ccccc1C(=O)C2=O` (configuration not stated): in assay [3], the IC50 was 1110 nM. As to `CC1(C)CCc2c(c3ccccc3c3nc(-c4ccccc4)[nH]c23)O1`, in [7], the IC50 came out at 37500 nM. As for `CC1(C)CCc2c(c3ccccc3c3nc(-c4cccc(Br)c4)[nH]c23)O1`, the MIC in [1] amounted to 1.56 µg/mL (≈ 3.83 µM).

`CC1(C)CCc2c(c3ccccc3c3nc(-c4ccc(Br)cc4)[nH]c23)O1`: in [7], the IC50 was determined as 37500 nM.

For the compound `CC1(C)CCc2c(c3ccccc3c3nc(-c4cccc(F)c4)[nH]c23)O1`, the MIC in assay [1] worked out at 1.56 µg/mL (≈ 4.5 µM). In the case of `CC1(C)CCc2c(c3ccccc3c3nc(-c4ccc(F)cc4)[nH]c23)O1`, the IC50 in assay [7] came to 37500 nM. As to `CC1(C)CCc2c(c3ccccc3c3nc(-c4ccc([N+](=O)[O-])cc4)[nH]c23)O1`, the MIC in assay [1] is greater than 100 µg/mL. Same read-out and setting: in the case of `COc1ccccc1-c1nc2c([nH]1)c1c(c3ccccc32)OC(C)(C)CC1` it was 1.56 µg/mL (≈ 4.35 µM). For the compound `Cc1ccccc1-c1nc2c([nH]1)c1c(c3ccccc32)OC(C)(C)CC1`, in assay [7], the IC50 was determined as 37500 nM. Besides, in assay [1], the MIC worked out at 1.56 µg/mL (≈ 4.56 µM). `CC1(C)CCc2c(c3ccccc3c3nc(-c4cccc(C(F)(F)F)c4)[nH]c23)O1`: in [1], the MIC worked out at 1.56 µg/mL (≈ 3.94 µM). Same read-out and setting: the figure for `Cc1ccc(-c2nc3c([nH]2)c2c(c4ccccc43)OC(C)(C)CC2)cc1` is 3.12 µg/mL (≈ 9.11 µM).

Consider `O=C1C(=O)c2ccccc2C2=C1CCCO2`, for which the IC50 in assay [8] turned out to be 920 nM.

As to `CC1(C)OC2=C(C(=O)C(=O)c3ccccc32)C1n1cc(C2=CCCCC2)nn1` (configuration not stated), the IC50 is less than 5000 nM in assay [3]; less than 1250 nM in assay [9]; less than 1250 nM in [10]; less than 1250 nM in assay [11]; less than 1250 nM in [12]; less than 1250 nM in assay [13].

`CC1(C)OC2=C(C(=O)C(=O)c3ccccc32)C1Sc1c(F)c(F)c(F)c(F)c1F` (configuration not stated): the zone diameter in [14] worked out at 10 mm.

As to `CC1(C)OC2=C(CC1[Se]c1ccccc1)C(=O)C(=O)c1ccccc12` (configuration not stated), the IC50 in assay [15] is 103000 nM.

As for `CC1(C)OC2=C(CC1[Se]c1cccc(C(F)(F)F)c1)C(=O)C(=O)c1ccccc12` (configuration not stated), the IC50 in [15] and in assay [16] was 54900 nM each time. Consider `CCCC[Se]C1CC2=C(OC1(C)C)c1ccccc1C(=O)C2=O` (configuration not stated), for which, in [15], the IC50 amounted to 109000 nM.

Values taken from ChEMBL document CHEMBL5104093, “A comprehensive review on β-lapachone: Mechanisms, structural modifications, and therapeutic potentials” (Eur J Med Chem, 2021).
